From US10835535B2, “Certain protein kinase inhibitors” (Shanghai Fochon Pharmaceutical Co., Ltd., priority 2016, dated 2020) come the findings set out here.

A word on the pIC50: it is the negative decadic logarithm of the IC50, by convention in mol/L. A word on the AUC(0-inf): it is the area under the concentration-time curve extrapolated to infinity. Read a low AUC(0-inf) as less exposure. As usually defined, the AUC(0-t) is the area under the concentration-time curve up to a stated or last time point. A lower AUC(0-t) goes with less exposure. One may read the Cmax as the maximum level reached in the sampled fluid or tissue. As a reminder, the half-life is how long it takes for the measured level to halve.

pIC50: −log10 of the molar value.

The test system of one series is JEKO-1 cells. Put plainly: Cell proliferation assay (MTS) in JEKO-1 cells. Particulars: Homo sapiens, 48 h. It is filed as cell-based. The source says: (§1) MTS testing kit was purchased from Promega. The DMEM, Fetal bovine serum and Penicillin-Streptomycin were purchased from Gibco. Dimethyl sulfoxide (DMSO) was purchased from Sigma.
(§2) To investigate whether a compound is able to inhibit the activity of CDK4/6 in cells, mechanism-based assays using BE2C (ATCC® number: CRL-2268) or JEKO-1 (ATCC® number: CRL-3006) cell were developed. In the assay, inhibition of CDK4/6 was detected by the inhibition of BE2C or JEKO-1 cell cells proliferation. BE2C or JEKO-1 cell cells were cultured in culture flasks to 40-80% confluence in DMEM plus 10% fetal bovine serum. Cells were collected and plated onto 96-well plates at desired cell density (BE2C: 3000 cells/well; JEKO-1: 30000 cells/well). Plates were incubated overnight at 37° C., with 5% CO2 to adhere. Compounds were added to the plates, the final compound concentrations were 10000, 3333, 1111, […], 123.5, 41.2, 13.7, 4.6 and 1.5 nM. Place plates at 37° C., with 5% CO2 for 48 h. After removing the medium, 20 μl MTS/100 μl medium mixture solution were added to each well and incubate the plates for exactly 2 hours. Stop the reaction by adding 25 μl 10% SDS per well. Measure absorbance at 490 nm and 650 nm (reference wavelength). IC50 was calculated using GraphPad Prism 5.0.
(§3) Select compounds prepared as described above were assayed according to the biological procedures described herein. “+++” stands for IC50 value between greater than about 10 nM to about 100 nM. “++” stands for IC50 value between greater than about 100 nM to about 1 μM. “+” stands for IC50 value greater than 1 μM.

The next series relates to BE2C cells. Nature of the series: Cell proliferation assay (MTS) in BE2C cells. It is filed as cell-based. Conditions: Homo sapiens, BE(2)-C, 48 h.
Excerpt: as §1, §2, §3

The next series concerns COLO205 xenograft tumors. Nature of the series: Tumor growth inhibition in COLO205 xenograft tumors. It is filed as in vivo, mice. Conditions: for TGI %: TGI = (1−T/C)×100%. How it is done: COLO205 cells were cultured with RPMI-1640 medium containing 10% fetal bovine serum (FBS) at 37° C. in 5% CO^2 incubator. Logarithmic growth phase cells were collected. COLO205 cells (5×10^6 in 200 μL PBS) were implanted subcutaneously into the left flank region, and tumor growth was monitored. Tumor volume (V) was estimated from the length (l) and width (w) of the tumor using the following formula: V=1/2×l×w^2. Treatment started when average tumor size was 100-200 mm^3.
The dosage and dosage regimen were as shown table 2. Tumor volumes and mice weight were measured 2 to 3 times every week.
Drug efficacy was assessed as Tumor Growth Inhibition (TGI) and T/C ratio. TGI was defined as (1−T/C)×100%, wherein T/C (%) presented the ratio of the change in mean tumor volume of the treated group and of the control group.

Series [1] can be described thus: Pharmacokinetic properties in dogs. Particulars: dog, po; male Beagle dogs, 3 mg/kg p.o., plasma. It is filed as in vivo. As to the method: Each test compounds was suspended in 0.5% methylcellulose (400 cP, w/v) in water.
Grouping male Beagle dogs was administered with test compound at a dose of 3 mg/kg by oral. After administering, blood samples were collected at time points of 0.25, 0.50, 1.0, 2.0, 4.0, 8.0 and 24.0 h. Standard curve was plotted based on concentrations of the samples in a suitable range, and the concentration of test compounds in plasma samples were determined by using LC-MS/MS. Pharmacokinetic parameters were calculated according to drug concentration-time curve using a non-compartmental method by Phoenix WinNonLin 6.3 software.

`CN(C)C(=O)c1sc2cnc(Nc3ccc(N4CCN(C5CCNCC5)CC4)cn3)nc2c1C1CCCC1` [Example 1, 7-cyclopentyl-N,N-dimethyl-2-((5-(4-(piperidin-4-yl)piperazin-1-yl)pyridin-2-yl)amino)thieno[3,2-d]pyrimidine-6-carboxamide] showed a pIC50 with JEKO-1 cells of 6.00 to 7.00.
Take `CCN1CCC(N2CCN(c3ccc(Nc4ncc5sc(C(=O)N(C)C)c(C6CCCC6)c5n4)nc3)CC2)CC1` [Example 2, 7-cyclopentyl-2-((5-(4-(1-ethylpiperidin-4-yl)piperazin-1-yl)pyridin-2-yl)amino)-N,N-dimethylthieno[3,2-d]pyrimidine-6-carboxamide]: in the series on BE2C cells, the negative logarithm of the IC50 (pIC50) is 7.00 to 8.00. For the same compound, in the series with JEKO-1 cells, the pIC50 was 6.00 to 7.00. Moreover, in the series with COLO205 xenograft tumors (30 mg/kg PO QD × 14 days), the T/C % amounted to 0.88% and the TGI % amounted to 99.12%. In addition, in series [1], the AUC(0-inf) was 7010 ng·h/mL, the AUC(0-t) worked out at 2500 ng·h/mL, the highest level (Cmax) was 127 ng/mL and the half-life was 1560 min.
`CN1CCC(N2CCN(c3ccc(Nc4ncc5sc(C(=O)N(C)C)c(C6CCCC6)c5n4)nc3)CC2)CC1` [Example 3, 7-cyclopentyl-N,N-dimethyl-2-((5-(4-(1-methylpiperidin-4-yl)piperazin-1-yl)pyridin-2-yl)amino)thieno[3,2-d]pyrimidine-6-carboxamide]: the figures for the pIC50 in the series with BE2C cells and with JEKO-1 cells were 7.00 to 8.00 and 6.00 to 7.00, respectively.
In the series with BE2C cells, `CN(C)C(=O)c1sc2cnc(Nc3ccc(N4CCC(N5CCNCC5)CC4)cn3)nc2c1C1CCCC1` [Example 4, 7-cyclopentyl-N,N-dimethyl-2-((5-(4-(piperazin-1-yl)piperidin-1-yl)pyridin-2-yl)amino)thieno[3,2-d]pyrimidine-6-carboxamide] gave a pIC50 of 6.00 to 7.00.
The compound `CN1CCN(C2CCN(c3ccc(Nc4ncc5sc(C(=O)N(C)C)c(C6CCCC6)c5n4)nc3)CC2)CC1` [Example 5, 7-cyclopentyl-N,N-dimethyl-2-((5-(4-(4-methylpiperazin-1-yl)piperidin-1-yl)pyridin-2-yl)amino)thieno[3,2-d]pyrimidine-6-carboxamide] gave a pIC50 in the series on BE2C cells of 7.00 to 8.00. The pIC50 in the series with JEKO-1 cells is 7.00 to 8.00. Further, in the series with COLO205 xenograft tumors (60 mg/kg PO QD × 14 days), the T/C % is on record as −2.31% and the TGI % came out at 102.31%. In series [1], this compound showed an AUC(0-inf) of 7520 ng·h/mL, an AUC(0-t) of 4660 ng·h/mL, a Cmax of 312 ng/mL and a half-life of 966 min.
In the series on BE2C cells, `CCN1CCN(C2CCN(c3ccc(Nc4ncc5sc(C(=O)N(C)C)c(C6CCCC6)c5n4)nc3)CC2)CC1` [Example 6, 7-cyclopentyl-2-((5-(4-(4-ethylpiperazin-1-yl)piperidin-1-yl)pyridin-2-yl)amino)-N,N-dimethylthieno[3,2-d]pyrimidine-6-carboxamide] had a pIC50 of 7.00 to 8.00. In the series with JEKO-1 cells, this compound showed a negative logarithm of the IC50 (pIC50) of 7.00 to 8.00. For the same compound, in the series on COLO205 xenograft tumors (60 mg/kg PO QD × 14 days), the T/C % is given as −2.97% and the TGI % is recorded as 102.97%. For the same compound, in series [1], the AUC(0-inf) was determined as 7340 ng·h/mL, the area under the curve AUC(0-t) worked out at 5030 ng·h/mL, the concentration peaked (Cmax) at 404 ng/mL and the half-life was 792 min.
`CN(C)C(=O)c1sc2cnc(Nc3ccc(N4CCC(N5CCOCC5)CC4)cn3)nc2c1C1CCCC1` [Example 7, 7-cyclopentyl-N,N-dimethyl-2-((5-(4-morpholinopiperidin-1-yl)pyridin-2-yl)amino)thieno[3,2-d]pyrimidine-6-carboxamide]: the pIC50 in the series with BE2C cells was 7.00 to 8.00.
As for `CN1CCN(c2ccc(Nc3ncc4sc(C(=O)N(C)C)c(C5CCCC5)c4n3)nc2)CC1` [Reference Compound 1, 7-cyclopentyl-N,N-dimethyl-2-(5-(4-methylpiperazin-1-yl)pyridin-2-ylamino)thieno[3,2-d]pyrimidine-6-carboxamide, reference compound], in series [1], the AUC(0-inf) was 103 ng·h/mL, the AUC(0-t) amounted to 83 ng·h/mL, the highest level (Cmax) was 36 ng/mL and the half-life was 322 min.
On to `CN(C)C(=O)c1cc2cnc(Nc3ccc(N4CCNCC4)cn3)nc2n1C1CCCC1` [Ribociclib, reference compound], for which, in the series on COLO205 xenograft tumors (60 mg/kg PO QD × 14 days), the T/C % is 25.6% and the TGI % is 74.40%.
